In patent publication US20030065176A1, “Factor xa inhibitors with aryl-amidines and derivatives, and prodrugs thereof” (priority 2000, published 2003):
Counter-ions that a name gives are not always drawn. Like-named read-outs stand apart in the source and are kept apart here. Blank lines part the entries; values can stand above or below the molecule they belong to.

Assays:
human thrombin = human thrombin (Homo sapiens, UniProt P00734); test: Thrombin inhibition assay (selectivity against thrombin); assay type: biochemical; settings: for Selectivity (thrombin/FXa): ratio of Ki values; for Ki: read-out: Inhibition ability against thrombin Ki
Protocol: The FXa inhibiting selectivity of the compound according to the present invention to thrombin is measured as follows. The inhibition effect of the compound of formula 1 to thrombin is measured in Ki value by practicing the same method as the above measuring method of FXa inhibiting activity, and the rate of thrombin/FXa is obtained. At this time, the experimental method of thrombin is the same as that of FXa, except that Chromozyme TH (Tosyl-Gly-Pro-Arg-nitroanilide acetate) is used as the substrate.
Inhibiting ability of a compound according to the present invention against thrombin activity was measured as follows.
In 1.5 mL cuvette, 0.1M tris buffer solution (pH 7.8) comprising 150 mM NaCl, and 0.1% PEG 8000 (molecular weight 8000) was placed by 1160 uL. Chromozyme X was dissolved in dimethylsulfoxide (DMSO) to be 0.1 mM, and diluted with the above buffer solution to be 0.1 mM to prepare the substrate solution. 225 uL of 0.1 mM substrate solution as prepared above was added to cuvette. The compound of the present invention was dissolved in DMSO to be 10 mM, and diluted with the above buffer solution to be 0.1 mM, 0.01 mM and 0.001 mM, respectively, to prepare an inhibitor solution. The inhibitor solution was taken in an amount from 0 to 20 uL, and supplemented with tris buffer solution up to 20 uL of total volume of the solution to add to the cuvette.
15 uL of human thrombin, which was dissolved in the above tris buffer solution to be 0.1 mg/mL, was added to the cuvette having the reaction solution at room temperature to begin enzyme hydrolysis. The amount of para-nitroanilide produced for 2 minutes after adding enzyme was monitored about variation of absorbency at 381 nm to depict continuous spectrum of reaction time to absorbency. The above experiment was repeated for various concentrations of inhibitor to obtain consecutive spectrum.
The initial velocity Vi was calculated from gradient within 30 sec of the reaction time in each spectrum. A graph was depicted for a reciprocal of the initial velocity to inhibitor concentration (1/Vi). A linear equation corresponding to points on the graph was obtained. Thereafter, Ki may be calculated by using enzyme reaction equation from x intercept.

trypsin [1] = target: T1, trypsin (UniProt P00760); test: Trypsin inhibition assay (selectivity against trypsin); assay type: biochemical; settings: read-out: Inhibition ability against trypsin Ki
T1 construct: other: A1: cyclopropyl scaffold; other: A2: pyrrole scaffold; other: A3: bicyclic scaffold; other: A4: cyanophenylalanine scaffold
T1 sequence (P00760 1-246): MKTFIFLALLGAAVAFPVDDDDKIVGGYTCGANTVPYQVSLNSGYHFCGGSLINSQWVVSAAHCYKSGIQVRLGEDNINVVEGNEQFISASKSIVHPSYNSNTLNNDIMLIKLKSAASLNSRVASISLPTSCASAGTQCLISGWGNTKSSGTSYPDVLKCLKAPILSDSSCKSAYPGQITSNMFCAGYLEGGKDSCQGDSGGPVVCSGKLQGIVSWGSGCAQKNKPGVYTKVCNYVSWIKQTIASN
Protocol: (§1) The FXa inhibition selectivity of the compound according to the present invention to trypsin is measured as follows. The inhibition effect of the compound of formula 1 to trypsin is measured in Ki value by practicing the same method as the above measuring method of FXa inhibiting activity, and the rate of trypsin/FXa is obtained. At this time, the experimental method of thrombin is the same as that of FXa, except that N-benzoyl-Val-Gly-Arg-p-nitroanilide hydrochloride is used as the substrate.
(§2) Inhibition activity of a compound according to the present invention was measured by performing the experiment as explained above concerning FXa.
(§3) 20 uM solution of N-benzoyl-Val-Gly-Arg-p-nitroanilide hydrochloride was used as a substrate. An inhibitor solution with various concentrations in the range of 0 to 120 uM was used. Trypsin was dissolved in 0.1N HCl, and supplemented with the above tris buffer solution to be 45 ug/mL. Thereafter, 40 uL of the trypsin solution was used. The remaining procedure and the used amounts of materials (for example, […] of total volume of the reaction solution) and the like were the same as those of the experiment for thrombin. Also, Km was decided in the same method as used in Ki calculation.

trypsin [2] = test: as above; assay type: biochemical; settings: ratio of Ki values
Protocol: as §1, §2, §3

[3] = background art; cited from earlier work
FXa = FXa (Homo sapiens, UniProt P00742); settings: background art; cited from earlier work
[4] = A4: cyanophenylalanine scaffold

Chain of FXa (P00742 235-488 limits assumed): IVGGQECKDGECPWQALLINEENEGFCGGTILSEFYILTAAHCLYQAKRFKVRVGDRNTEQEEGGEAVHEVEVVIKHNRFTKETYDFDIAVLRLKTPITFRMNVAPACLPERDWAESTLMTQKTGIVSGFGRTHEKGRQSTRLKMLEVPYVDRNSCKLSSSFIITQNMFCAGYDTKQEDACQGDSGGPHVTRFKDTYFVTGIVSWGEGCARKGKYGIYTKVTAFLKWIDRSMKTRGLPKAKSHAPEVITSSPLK
Chain of FXa (P00742 41-179 limits assumed): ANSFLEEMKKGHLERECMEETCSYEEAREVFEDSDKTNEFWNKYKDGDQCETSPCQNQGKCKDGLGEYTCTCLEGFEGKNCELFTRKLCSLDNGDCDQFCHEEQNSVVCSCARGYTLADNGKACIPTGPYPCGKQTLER

Molecule: 4-(2-cyanophenyl)-phenyl N-carboxymethyl)-3-(3-aminoiminomethylphenyl)alanine amide trifluoroacetic acid salt [Compound No. A4-10]
- Selectivity (thrombin/FXa) (human thrombin; [4]): 14
- Ki (human thrombin; [4]): 1.7 µM

Molecule: 4-(4-Aminoiminomethylbenzyl)-1-(3-aminoiminomethylhydroxy-benzyl)-pyrrole-3-carboxylic acid bis trifluoroacetic acid salt [Compound No. A2-30]
- Selectivity (thrombin/FXa) (human thrombin; A2: pyrrole scaffold): 190

Molecule: Cc1ccc(S(N)(=O)=O)c(-c2ccc(NC(=O)[C@@H]3C[C@H]3c3cccc(C(=N)N)c3)cc2)c1.O=C(O)C(F)(F)F (relative stereo) [Compound No. A1-3, 4-(2-aminosulfonyl-5-methyl-phenyl)-phenyl trans 2-(3-aminoiminomethylphenyl-cyclopropane-1-carboxamidemonotrifluoroacetic acid salt]
- Ki (trypsin [1]; A1: cyclopropyl scaffold): 0.12 µM
- Ki (human thrombin; A1: cyclopropyl scaffold): 0.52 µM

Molecule: Cc1ccc(S(N)(=O)=O)c(-c2ccc(NC(=O)[C@@H]3C[C@H]3c3cccc(C(=N)N)c3)cc2)c1.O=C(O)C(F)(F)F (relative stereo) [Compound No. A1-3]
- Selectivity (trypsin/FXa) (trypsin [2]; A1: cyclopropyl scaffold): 0.94
- Selectivity (thrombin/FXa) (human thrombin; A1: cyclopropyl scaffold): 5

Molecule: Cc1ccc(S(N)(=O)=O)c(-c2ccc(NC(=O)[C@@H]3C[C@@H]3c3cccc(C(=N)N)c3)cc2)c1.O=C(O)C(F)(F)F (relative stereo) [Compound No. A1-4, 4-(2-aminosulfonyl-5-methyl-phenyl)-phenyl cis-2-(3-aminoiminomethylphenyl)-cyclopropane-1-carboxamide mono trfluoroacetic acid salt]
- Selectivity (thrombin/FXa) (human thrombin; A1: cyclopropyl scaffold): 127
- Ki (human thrombin; A1: cyclopropyl scaffold): 0.38 µM

Molecule: N#Cc1ccccc1-c1ccc(NC(=O)[C@@H]2C[C@@H]2c2cccc(C(=N)N)c2)cc1.O=C(O)C(F)(F)F (relative stereo) [Compound No. A1-7, 4-(2-cyanophenyl)-phenyl [1,2]-cis, [2,3]-cis-2-(3-aminoiminomethylphenyl)cyclopropane-1-carboxamide mono trifluoroacetic acid salt]
- Selectivity (trypsin/FXa) (trypsin [2]; A1: cyclopropyl scaffold): 40
- Ki (trypsin [1]; A1: cyclopropyl scaffold): 0.2 µM
- Selectivity (thrombin/FXa) (human thrombin; A1: cyclopropyl scaffold): 400
- Ki (human thrombin; A1: cyclopropyl scaffold): 2 µM

Molecule: CCOC(=O)c1cn(Cc2ccccc2)cc1Cc1ccc(C(=N)N)cc1.O=C(O)C(F)(F)F [Compound No. A2-1, Ethyl 4-(4-aminoiminomethylbenzyl)-benzyl-pyrrole-3-carboxylate trifluoroacetic acid salt]
- Selectivity (thrombin/FXa) (human thrombin; A2: pyrrole scaffold): 0.1

Molecule: CCOC(=O)c1cn(Cc2ccc(-c3ccccc3)cc2)cc1Cc1cccc(C(=N)N)c1.O=C(O)C(F)(F)F [Compound No. A2-19, Ethyl 4-(3-aminoiminomethylbenzyl)-1-(4-biphenylmethyl)-pyrrole-3-carboxylate trifluoroacetic acid salt]
- Selectivity (thrombin/FXa) (human thrombin; A2: pyrrole scaffold): 0.4

- Selectivity (thrombin/FXa) (human thrombin; A2: pyrrole scaffold): 14
Molecule: N=C(N)c1ccc(Cn2cc(Cc3cccc(C(=N)N)c3)c(C(=O)N3CCOCC3)c2)cc1 [Compound No. A2-40, 4-(3-Aminoiminomethylbenzyl)-1-(4-aminoiminomethylbenzyl)-pyrrole-3-carboxylic acid morphorline amide bis trifluoroacetic acid salt]

Molecule: CCOC(=O)c1cn(Cc2ccc(C(=N)N)cc2)cc1Cc1ccc(C(=N)N)cc1.O=C(O)C(F)(F)F.O=C(O)C(F)(F)F [Compound No. A2-42]
- Selectivity (thrombin/FXa) (human thrombin; A2: pyrrole scaffold): 4.7

Molecule: CCOC(=O)c1cn(Cc2cccc(C(=N)N)c2)cc1-c1cccc(-c2ccccc2)c1.O=C(O)C(F)(F)F [Compound No. A2-51, Ethyl 4-(3-biphenyl)-1-(3-aminoiminomethylbenzyl)-pyrrole-3-carboxylate trifluoroacetic acid salt]
- Selectivity (thrombin/FXa) (human thrombin; A2: pyrrole scaffold): 0.08

Molecule: CCOC(=O)c1cn(Cc2cccc(C(=N)N)c2)cc1-c1ccc(-c2ccccc2)cc1.O=C(O)C(F)(F)F [Compound No. A2-52, Ethyl 4-(4-biphenyl)-1-(3-aminoiminomethylbenzyl)-pyrrole-3-carboxylate trifluoroacetic acid salt]
- Selectivity (thrombin/FXa) (human thrombin; A2: pyrrole scaffold): 2.6

Molecule: N=C(N)c1ccc(-c2ccccc2NC(=O)Nc2cccc(C(=N)N)c2)cc1.O=C(O)C(F)(F)F.O=C(O)C(F)(F)F [Compound No. A3-8]
- Selectivity (thrombin/FXa) (human thrombin; A3: bicyclic scaffold): 1.6

Molecule: N=C(N)c1ccc(NC(=O)Nc2ccccc2-c2ccc(C(=N)N)cc2)cc1.O=C(O)C(F)(F)F.O=C(O)C(F)(F)F [Compound No. A3-9]
- Selectivity (thrombin/FXa) (human thrombin; A3: bicyclic scaffold): 0.04

Molecule: N=C(N)c1ccc(NC(=O)Nc2ccccc2-c2cccc(C(=N)N)c2)cc1.O=C(O)C(F)(F)F.O=C(O)C(F)(F)F [Compound No. A3-10]
- Selectivity (thrombin/FXa) (human thrombin; A3: bicyclic scaffold): 0.82

Molecule: N=C(N)c1cccc(NC(=O)Nc2ccccc2-c2cccc(C(=N)N)c2)c1.O=C(O)C(F)(F)F.O=C(O)C(F)(F)F [Compound No. A3-11]
- Selectivity (thrombin/FXa) (human thrombin; A3: bicyclic scaffold): 6.4

Molecule: N=C(N)c1cccc(-c2ccccc2NS(=O)(=O)Cc2ccccc2)c1.O=C(O)C(F)(F)F [Compound No. A3-21]
- Selectivity (thrombin/FXa) (human thrombin; A3: bicyclic scaffold): 0.73

Molecule: C[n+]1cccc(-c2ccc(NC(=O)C3=C(c4cccc(C(=N)N)c4)CCC3)cc2)c1.O=C([O-])C(F)(F)F [Compound No. A3-26, 4-(N-methylpyridinium-3-yl)-phenyl 2-(3-aminoiminomethylphenyl)-cyclopenetene-1-carboxamide trifluoroacetic acid salt]
- Selectivity (trypsin/FXa) (trypsin [2]; A3: bicyclic scaffold): 10
- Ki (trypsin [1]; A3: bicyclic scaffold): 0.21 µM
- Selectivity (thrombin/FXa) (human thrombin; A3: bicyclic scaffold): 670

Molecule: CC(=N)N1CC[C@H](Oc2ccc(C(Cc3ccc4ccc(C(=N)N)cc4c3)C(=O)O)cc2)C1 (stereo partly drawn) [DX9065a]
- oral absorption [3]: capable of being absorbed orally

Molecule: N=C(N)c1ccc(O)c(CN2CC[C@H](NS(=O)(=O)c3ccc(-c4cccnc4)s3)C2=O)c1 [RPR-130737]
- effect as a Fxa inhibitor (FXa): excellent effect as a Fxa inhibitor
- selectivity against thrombin, trypsin and the like enzymes (FXa): excellent selectivity against thrombin, trypsin and the like enzymes

Molecule: N=C(N)c1cccc(C2=NOC(Cc3nn[nH]n3)(C(=O)Nc3ccc(-c4ccccc4S(N)(=O)=O)cc3)C2)c1 (stereo not drawn) [SK-549]
- effect as a Fxa inhibitor (FXa): excellent effect as a Fxa inhibitor
- selectivity against thrombin, trypsin and the like enzymes (FXa): excellent selectivity against thrombin, trypsin and the like enzymes

Molecule: CC(=N)N1CCC(Oc2ccc(N(Cc3ccc4ccc(C(=N)N)cc4c3)S(=O)(=O)CC(=O)O)cc2)CC1 [YM-60828]
- oral absorption [3]: capable of being absorbed orally

Molecule: CN1CCN=C1c1cccc(Oc2nc(Oc3cc(C(=N)N)ccc3O)c(F)c(N(C)CC(=O)O)c2F)c1 [ZK-80719]
- oral absorption [3]: capable of being absorbed orally

Molecule: CC(C)c1nc2c(C(=O)O)cc(NC3CCN(C(=N)N)CC3)cc2n1Cc1ccc2ccc(C(=N)N)cc2c1 [ZK-807369]
- oral absorption [3]: capable of being absorbed orally

Molecule: Ethyl 4-(3-aminoiminomethylbenzyl)-1-aminoiminomethylbenzyl)-pyrrole-3-carboxylate bis trifluoroacetic acid salt [Compound No. A2-37]
- Selectivity (thrombin/FXa) (human thrombin; A2: pyrrole scaffold): 7.0
